Measured values published in patent US9938301B2, “Dihydropyrimido fused ring derivative as HBV inhibitor” (QILU PHARMACEUTICAL CO., LTD., priority 2014, dated 2018).
Like-named read-outs stand apart in the source and are kept apart here.

System: HBV DNA in HepG2.2.15 cells
Experiment: HBV in vitro dot-blot hybridization test
Format: cell-based, Hepatitis B virus
Settings: Hepatitis B virus
Experimental: • 1. Purpose of the test: • The content of HBV DNA in HepG2.2.15 cells was detected by dot-blot hybridization test to evaluate an inhibitory action of the compound on HBV with an EC50 value as an indicator. • 2. Experimental materials: • 2.1 Cell lines: HepG2.2.15 Cells • HepG2.2.15 cell culture media (DMEM/F12, Invitrogen-11330057; 10% serum Invitrogen-10099141; 100 units/mL Penicillin and 10 μg/mL Streptomycin, Invitrogen-15140122; 1% non-essential amino acid, Invitrogen-11140076; 2 mM L-GLUTAMINE, Invitrogen-25030081; 300 µg/ml Geneticin, Invitrogen-10131027 • 2.2 Reagents: • Trypsin (I Invitrogen-25300062) • DPBS (Hyclone-SH30028.01B) • DMSO (Sigma-D2650-100ML) • 96-well cell-culture plate (Corning-3599) • CO2 incubator (HERA-CELL-240) • 20×SSC (Bio-serve Co. Ltd) • Tris-HCl (Aldirch-154563-1KG) • NaOH (Sinopharm 10019718) • NaCl (Sinopharm 10019308) • Hybridization solution (Major BioTech Co. Ltd, IMMUNE GOLD-HYB-500) • DIG Wash and Block Buffer set (Roche-11585762001) • Anti-digoxigenin-AP, Fab fragments from sheep (Roche-11093274910) • 2.3 Materials and Instruments: • Positively-Charged Nylon Membrane (GE-RPN2250B) • Transfer Membrane Instrument (Bio-Rad, 170-6545) • Hybridization Oven (HL-2000 Hybrilinker) • 3. Testing steps and Methods: • 3.1 HepG2.2.15 cells (4×10^4 cells/well) were planted into a 96-well plate, and at 37° C., 5% CO2 cultured overnight. • 3.2 On Day 2, the compounds were diluted in totally 6 concentrations with a dilution gradient of five times. The compounds at different concentrations were added into the culture wells in duplicate. The final concentration of DMSO in the culture media was 1%. 1 μM GLS4 was used as 100% inhibition control; 1% DMSO as 0% inhibition control. • 3.3 On Day 5, replacing with the fresh culture media containing the compound was performed. • 3.4 On Day 8 and Day 9, the culture media in the culture wells was removed, and the cells were harvested for dot-blot hybridization. • The lysate was added into a culture well, and at 37° C. incubating for half an hour to disintegrate cells; the supernatant was obtained by centrifugation and transferred into a new microplate; a denaturation solution was added, after sufficient mixing the denatured sample was transferred and imprinted onto a Nylon membrane, the nucleic acid was fixed onto the membrane by UV cross-linking. • Pre-hybridization: the membrane was incubated at 60° C. in a hybridization solution for 1 hour. • Hybridization: heating the denatured digoxin-labelled HBV DNA probe and incubating at 60° C. overnight. • Membrane Washing: performing high strigency washing twice, low strigency washing for 3 times. • Blocking: incubating the membrane at room temperature in a blocking solution for 30-60 minutes. • Hybridization: diluting the Antibody Solution with the blocking solution, in which the membrane was placed and incubated at room temperature for 30-60 minutes. • Developing: washing the membrane in a Detection Buffer for 5 minutes, followed by adding a developing solution, pressing and exposing. • The photos was saved in tiff format, and a gray value of the dot was quantified with quantity one software. • 3.5 Data Analysis: • 3.5.1 The inhibition percentage was calculated: % Inh.=[1−(sample dot gray value−1 μM GLS4 dot gray value 1)/(DMSO control dot gray value−1 μM GLS4 dot gray value 1)]×100. • 3.5.2 Calculating EC50: the concentration of the compound for 50% inhibition of HBV (EC50) was calculated by using GraphPad Prism Software. • 4.

[1] = HepG2.2.15, dot-blot hybridization assay, read-out: Concentration for 50% inhibition of HBV (EC50)value
[2] = HepG2.2.15, summary list of target compounds, Examples 1-165 (same as Table 2), read-out: BIOACTIVITY (inhibitory actions on HBV DNA, EC50)

| Compound | EC50 [1] [nM] | EC50 [2] [nM] |
| --- | --- | --- |
| CCOC(=O)C1=C2CN(C)C(=O)CN2C(c2nccs2)=NC1c1ccc(F)cc1Br (racemic) [Example 105] | 500 to 1000 | 500 to 1000 |
| CCOC(=O)C1=C2CCOC(=O)N2C(c2nccs2)=NC1c1ccc(F)cc1Br (racemic) [Example 107] | 100 to 500 | 100 to 500 |
| CCOC(=O)C1=C2CCCC(=O)N2C(c2nccs2)=N[C@H]1c1ccc(F)cc1Br (racemic) [Example 108] | 1000 to 5000 | 1000 to 5000 |
| CCOC(=O)C1=C2CCCCN2C(c2nccs2)=NC1c1ccc(F)cc1Cl (racemic) [Example 109] | 1000 to 5000 | 1000 to 5000 |
| CCOC(=O)C1=C2COCCN2C(c2nccs2)=NC1c1ccc(F)cc1Br (racemic) [Example 110] | 1000 to 5000 | 1000 to 5000 |
| CCOC(=O)C1=C2CCOC(=O)N2C(c2nccs2)=NC1c1ccc(F)cc1Cl (racemic) [Example 111] | 1000 to 5000 | 1000 to 5000 |
| CCOC(=O)C1=C2CCN2C(c2nccs2)=NC1c1ccc(F)cc1Br (racemic) [Example 112] | 1000 to 5000 | 1000 to 5000 |
| CCOC(=O)C1=C2CCCN2C(c2nccs2)=N[C@H]1c1ccc(F)cc1Br [Example 5] | 100 to 500 | 100 to 500 |
| CCOC(=O)C1=C2C[C@@H](CO)CN2C(c2nccs2)=N[C@H]1c1ccc(F)cc1Br [Example 6] | < 100 | < 100 |
| CCOC(=O)C1=C2C[C@H](CO)CN2C(c2nccs2)=N[C@H]1c1ccc(F)cc1Br [Example 7] | 100 to 500 | 100 to 500 |
| CCOC(=O)C1=C2C[C@@H](CC(=O)O)CN2C(c2nccs2)=N[C@H]1c1ccc(F)cc1Br [Example 13] | 100 to 500 | 100 to 500 |
| CCOC(=O)C1=C2C[C@H](CC(=O)O)CN2C(c2nccs2)=N[C@H]1c1ccc(F)cc1Br [Example 14] | 500 to 1000 | 500 to 1000 |
| CCOC(=O)C1=C2C[C@H](CN3CCOCC3)CN2C(c2nccs2)=N[C@H]1c1ccc(F)cc1Br [Example 15] | 100 to 500 | 100 to 500 |
| CCOC(=O)C1=C2C[C@@H](CN3CCOCC3)CN2C(c2nccs2)=N[C@H]1c1ccc(F)cc1Br [Example 16] | 1000 to 5000 | 1000 to 5000 |
| CCOC(=O)CN(C)C[C@@H]1CC2=C(C(=O)OCC)[C@H](c3ccc(F)cc3Br)N=C(c3nccs3)N2C1 [Example 19] | 1000 to 5000 | 1000 to 5000 |
| CCOC(=O)CN(C)C[C@H]1CC2=C(C(=O)OCC)[C@H](c3ccc(F)cc3Br)N=C(c3nccs3)N2C1 [Example 20] | 1000 to 5000 | 1000 to 5000 |
| CCOC(=O)C1=C2C[C@@H](CN3CCC[C@H]3C(=O)OC)CN2C(c2nccs2)=N[C@H]1c1ccc(F)cc1Br [Example 21] | 1000 to 5000 | 1000 to 5000 |
| CCOC(=O)C1=C2C[C@H](CN3CCC[C@H]3C(=O)OC)CN2C(c2nccs2)=N[C@H]1c1ccc(F)cc1Br [Example 22] | 1000 to 5000 | 1000 to 5000 |
| CCOC(=O)C1=C2C[C@H](C#N)CN2C(c2nccs2)=N[C@H]1c1ccc(F)cc1Cl [Example 24] | 500 to 1000 | 500 to 1000 |
| CCOC(=O)C1=C2C[C@@H](C#N)CN2C(c2nccs2)=N[C@H]1c1ccc(F)cc1Cl [Example 25] | 1000 to 5000 | 1000 to 5000 |
| CCOC(=O)C1=C2C[C@@H](C(N)=O)CN2C(c2nccs2)=N[C@H]1c1ccc(F)cc1Cl [Example 30] | 100 to 500 | 100 to 500 |
| CCOC(=O)C1=C2C[C@H](C(N)=O)CN2C(c2nccs2)=N[C@H]1c1ccc(F)cc1Cl [Example 31] | 100 to 500 | 100 to 500 |
| CCOC(=O)C1=C2C[C@H](c3nnn[nH]3)CN2C(c2nccs2)=N[C@H]1c1ccc(F)cc1Cl [Example 32] | 1000 to 5000 | 1000 to 5000 |

| Compound | EC50 [1] [nM] | EC50 [2] [nM] |
| --- | --- | --- |
| CCOC(=O)C1=C2C[C@@H](c3nnn[nH]3)CN2C(c2nccs2)=N[C@H]1c1ccc(F)cc1Br [Example 33] | 1000 to 5000 | 1000 to 5000 |
| CCOC(=O)C1=C2C[C@H](O)CN2C(c2nccs2)=N[C@H]1c1ccc(F)cc1Cl [Example 34] | 100 to 500 | 100 to 500 |
| CCOC(=O)C1=C2C[C@H](O)CN2C(c2nccs2)=N[C@@H]1c1ccc(F)cc1Cl [Example 35] | 1000 to 5000 | 1000 to 5000 |
| CCOC(=O)C1=C2C[C@H](N(C)C)CN2C(c2nccs2)=N[C@H]1c1ccc(F)cc1Br [Example 36] | 500 to 1000 | 500 to 1000 |
| CCOC(=O)C1=C2C[C@@H](N(C)C)CN2C(c2nccs2)=N[C@H]1c1ccc(F)cc1Br [Example 37] | 1000 to 5000 | 1000 to 5000 |
| CCOC(=O)C1=C2C[C@H](NC(=O)OC(C)(C)C)CN2C(c2nccs2)=N[C@H]1c1ccc(F)cc1Br [Example 38] | < 100 | < 100 |
| CCOC(=O)C1=C2C[C@@H](NC(=O)OC(C)(C)C)CN2C(c2nccs2)=N[C@H]1c1ccc(F)cc1Br [Example 39] | < 100 | < 100 |
| CCOC(=O)C1=C2C[C@@H](N)CN2C(c2nccs2)=N[C@H]1c1ccc(F)cc1Br [Example 40] | 1000 to 5000 | 1000 to 5000 |
| CCOC(=O)C1=C2C[C@H](N)CN2C(c2nccs2)=N[C@H]1c1ccc(F)cc1Br [Example 41] | 1000 to 5000 | 1000 to 5000 |
| CCOC(=O)C1=C2C[C@@H](NC(=O)OC)CN2C(c2nccs2)=N[C@H]1c1ccc(F)cc1Br [Example 43] | 100 to 500 | 100 to 500 |
| CCOC(=O)C1=C2C[C@H](NC(=O)OC)CN2C(c2nccs2)=N[C@H]1c1ccc(F)cc1Br [Example 44] | < 100 | < 100 |
| CCOC(=O)C1=C2CC(NC(=O)OC(C)C)CN2C(c2nccs2)=N[C@H]1c1ccc(F)cc1Br (stereo partly drawn) [Example 46] | 100 to 500 | 100 to 500 |
| CCOC(=O)C1=C2C[C@H](NC(=O)OC(C)C)CN2C(c2nccs2)=N[C@H]1c1ccc(F)cc1Br [Example 47] | < 100 | < 100 |
| CCOC(=O)C1=C2C[C@@H](NC(C)=O)CN2C(c2nccs2)=N[C@H]1c1ccc(F)cc1Br [Example 49] | 100 to 500 | 100 to 500 |
| CCOC(=O)C1=C2C[C@H](NC(C)=O)CN2C(c2nccs2)=N[C@H]1c1ccc(F)cc1Br [Example 50] | 1000 to 5000 | 1000 to 5000 |
| CCOC(=O)C1=C2CC(NC(=O)NC)CN2C(c2nccs2)=N[C@H]1c1ccc(F)cc1Br (stereo partly drawn) [Example 52] | 500 to 1000 | 500 to 1000 |
| CCOC(=O)C1=C2C[C@H](NC(=O)NC)CN2C(c2nccs2)=N[C@H]1c1ccc(F)cc1Br [Example 53] | < 100 | < 100 |
| CCOC(=O)C1=C2C[C@@H](NS(=O)(=O)NC)CN2C(c2nccs2)=N[C@H]1c1ccc(F)cc1Br [Example 55] | < 100 | < 100 |
| CCOC(=O)C1=C2C[C@H](N(C)S(=O)(=O)NC)CN2C(c2nccs2)=N[C@H]1c1ccc(F)cc1Br [Example 56] | < 100 | < 100 |
| CCOC(=O)C1=C2CC(NS(C)(=O)=O)CN2C(c2nccs2)=N[C@H]1c1ccc(F)cc1Br (stereo partly drawn) [Example 58] | < 100 | < 100 |
| CCOC(=O)C1=C2C[C@H](NS(C)(=O)=O)CN2C(c2nccs2)=N[C@H]1c1ccc(F)cc1Br [Example 59] | < 100 | < 100 |
| CCOC(=O)C1=C2CC(NS(=O)(=O)C3CC3)CN2C(c2nccs2)=N[C@H]1c1ccc(F)cc1Br (stereo partly drawn) [Example 61] | < 100 | < 100 |
